The source of these data is ChEMBL document CHEMBL1909046, “DrugMatrix in vitro pharmacology data”.

For series [1], the target named is Matrix metalloproteinase-9 (Homo sapiens, UniProt P14780). It counts as cell-based.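 Further: inhibition of isolated MMP-9 enzyme activity toward a synthetic peptide substrate, from the DrugMatrix protease screening panel; in other assays of this panel Not Active means under 50% inhibition at 10 µM.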
For series [2], the target named is T1, C-C chemokine receptor type 4 (Homo sapiens, UniProt P51679). Further: in other assays of this panel Not Active means under 50% inhibition at 10 µM.
T1 sequence (P51679 whole entry): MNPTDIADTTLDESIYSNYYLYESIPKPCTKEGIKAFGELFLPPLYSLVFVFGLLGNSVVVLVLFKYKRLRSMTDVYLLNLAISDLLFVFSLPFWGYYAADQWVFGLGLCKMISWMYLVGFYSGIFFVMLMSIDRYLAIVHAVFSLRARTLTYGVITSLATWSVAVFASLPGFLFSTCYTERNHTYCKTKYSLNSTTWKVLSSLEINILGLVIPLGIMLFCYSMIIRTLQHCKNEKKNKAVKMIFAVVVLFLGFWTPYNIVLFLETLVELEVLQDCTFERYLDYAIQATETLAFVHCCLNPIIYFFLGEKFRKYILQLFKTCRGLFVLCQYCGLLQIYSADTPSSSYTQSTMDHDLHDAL
It counts as cell membranes, Membrane. Particulars: chem-1.

Another series has as its target Adenosine receptor A2a (Homo sapiens, UniProt P29274). The series can be described thus: DRUGMATRIX: Adenosine A2A radioligand binding (ligand: […]). Type of series: cell membranes, HEK293, Membrane. Particulars: hek293; Not Active = under 50% inhibition at 10 µM.
For series [3], the target named is T2, Neuropeptide Y receptor type 2 (Homo sapiens, UniProt P49146). Further: in other assays of this panel Not Active means under 50% inhibition at 10 µM.
T2 sequence (P49146 whole entry): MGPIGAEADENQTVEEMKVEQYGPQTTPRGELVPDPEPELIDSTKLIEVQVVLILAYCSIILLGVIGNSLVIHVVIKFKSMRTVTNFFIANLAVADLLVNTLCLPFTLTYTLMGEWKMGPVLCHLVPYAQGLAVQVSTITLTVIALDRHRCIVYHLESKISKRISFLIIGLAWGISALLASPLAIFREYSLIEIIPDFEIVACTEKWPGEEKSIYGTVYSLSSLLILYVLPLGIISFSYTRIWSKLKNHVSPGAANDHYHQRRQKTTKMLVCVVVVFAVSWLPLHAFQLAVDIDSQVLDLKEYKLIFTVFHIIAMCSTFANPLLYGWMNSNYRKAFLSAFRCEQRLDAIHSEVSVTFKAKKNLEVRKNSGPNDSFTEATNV
It counts as cell membranes, Membrane. Particulars: kan-ts.

The target of another series is Cytochrome P450 2C19 (Homo sapiens, UniProt P33261). Particulars: bti-tn-5b1-4.
The nature of series [4]: DRUGMATRIX: GABAA, Muscimol, Central radioligand binding (ligand: [3H] Muscimol). Type of series: cell membranes, Rattus norvegicus, Wistar, Brain, Membrane. Particulars: Not Active = under 50% inhibition at 10 µM.
For series [5], the target named is T3, Alpha-1B adrenergic receptor (Rattus norvegicus, UniProt P15823).
T3 sequence (P15823 whole entry): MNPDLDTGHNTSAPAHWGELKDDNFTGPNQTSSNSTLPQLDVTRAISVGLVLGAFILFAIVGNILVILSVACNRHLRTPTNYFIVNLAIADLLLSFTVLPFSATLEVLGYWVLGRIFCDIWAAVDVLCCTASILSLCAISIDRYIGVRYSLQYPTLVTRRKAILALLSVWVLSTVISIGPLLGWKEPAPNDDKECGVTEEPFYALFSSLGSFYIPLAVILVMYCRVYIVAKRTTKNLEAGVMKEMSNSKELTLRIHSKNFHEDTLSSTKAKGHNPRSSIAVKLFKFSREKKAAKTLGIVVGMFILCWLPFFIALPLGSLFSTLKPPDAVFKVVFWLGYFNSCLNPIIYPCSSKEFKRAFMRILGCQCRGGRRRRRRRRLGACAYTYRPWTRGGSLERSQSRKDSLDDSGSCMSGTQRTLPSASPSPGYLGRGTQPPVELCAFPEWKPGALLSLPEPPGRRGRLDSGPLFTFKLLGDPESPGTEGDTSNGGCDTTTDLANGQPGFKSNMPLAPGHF
The series can be described thus: DRUGMATRIX: Alpha-1B adrenergic receptor radioligand binding (ligand: prazosin). Type of series: cell membranes, Wistar, Liver, Membrane. Particulars: Not Active = under 50% inhibition at 10 µM.

Adenosine receptor A2a, sequence (P29274 whole entry): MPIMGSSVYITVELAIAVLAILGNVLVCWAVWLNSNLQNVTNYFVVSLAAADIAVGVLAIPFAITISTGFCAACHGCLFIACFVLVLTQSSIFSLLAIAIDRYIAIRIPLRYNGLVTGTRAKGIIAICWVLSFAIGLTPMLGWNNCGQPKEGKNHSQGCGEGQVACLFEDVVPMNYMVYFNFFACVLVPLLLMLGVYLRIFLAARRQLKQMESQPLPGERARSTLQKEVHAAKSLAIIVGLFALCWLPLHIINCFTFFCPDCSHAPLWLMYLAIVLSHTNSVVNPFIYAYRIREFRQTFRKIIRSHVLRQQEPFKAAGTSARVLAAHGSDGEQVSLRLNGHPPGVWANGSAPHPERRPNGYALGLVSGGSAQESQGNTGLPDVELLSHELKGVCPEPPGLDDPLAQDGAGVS
Matrix metalloproteinase-9, sequence (P14780 whole entry): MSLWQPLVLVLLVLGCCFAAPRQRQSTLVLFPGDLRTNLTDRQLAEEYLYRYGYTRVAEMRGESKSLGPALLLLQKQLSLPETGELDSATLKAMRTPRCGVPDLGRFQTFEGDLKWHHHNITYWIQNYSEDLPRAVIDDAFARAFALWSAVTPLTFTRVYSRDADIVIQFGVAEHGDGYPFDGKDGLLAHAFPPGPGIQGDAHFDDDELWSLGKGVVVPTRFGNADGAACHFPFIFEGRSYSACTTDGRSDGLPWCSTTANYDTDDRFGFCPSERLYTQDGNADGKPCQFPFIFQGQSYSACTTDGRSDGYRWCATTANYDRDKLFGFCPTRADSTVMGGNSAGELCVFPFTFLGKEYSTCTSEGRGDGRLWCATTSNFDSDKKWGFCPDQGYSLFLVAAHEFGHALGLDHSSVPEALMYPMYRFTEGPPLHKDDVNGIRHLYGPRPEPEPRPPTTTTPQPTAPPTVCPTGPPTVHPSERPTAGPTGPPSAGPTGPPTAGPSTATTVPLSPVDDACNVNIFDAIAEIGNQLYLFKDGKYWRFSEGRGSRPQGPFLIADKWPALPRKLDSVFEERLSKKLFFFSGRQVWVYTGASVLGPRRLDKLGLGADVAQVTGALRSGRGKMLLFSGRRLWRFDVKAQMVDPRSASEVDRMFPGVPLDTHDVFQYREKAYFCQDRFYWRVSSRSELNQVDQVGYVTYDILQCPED
Cytochrome P450 2C19, sequence (P33261 whole entry): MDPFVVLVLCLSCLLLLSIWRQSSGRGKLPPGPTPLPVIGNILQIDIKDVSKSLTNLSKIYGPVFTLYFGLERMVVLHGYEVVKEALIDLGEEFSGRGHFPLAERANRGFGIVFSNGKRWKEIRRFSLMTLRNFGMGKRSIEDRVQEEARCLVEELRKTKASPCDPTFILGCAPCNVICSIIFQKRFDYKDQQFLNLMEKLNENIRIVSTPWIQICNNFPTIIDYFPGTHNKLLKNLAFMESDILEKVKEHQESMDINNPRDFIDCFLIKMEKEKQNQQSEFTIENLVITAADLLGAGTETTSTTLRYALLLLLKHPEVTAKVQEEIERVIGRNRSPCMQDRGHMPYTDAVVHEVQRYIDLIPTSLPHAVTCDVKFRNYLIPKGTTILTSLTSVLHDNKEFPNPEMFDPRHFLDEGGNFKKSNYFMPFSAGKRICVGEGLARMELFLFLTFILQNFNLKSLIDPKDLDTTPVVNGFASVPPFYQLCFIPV

Consider `C[C@@H]1O[C@@H](O[C@H]2C[C@@H](O)[C@]3(CO)[C@H]4[C@H](O)C[C@]5(C)[C@@H](C6=CC(=O)OC6)CC[C@]5(O)[C@@H]4CC[C@]3(O)C2)[C@H](O)[C@H](O)[C@H]1O` [OUABAIN], for which the concentration for half-maximal inhibition (IC50) entry (in series [1]; in series [2]; on Adenosine receptor A2a; in series [3]; against Cytochrome P450 2C19; in series [4]) was “Not Active” throughout. The IC50 (as a rule, the midpoint of a concentration-inhibition curve) in series [5] was “Not Active”. For the same molecule, the Ki entry (at Cytochrome P450 2C19; in series [4]) was “Not Active” each time.
As for `NC(=O)N1c2ccccc2CC(=O)c2ccccc21` [OXCARBAZEPINE], the IC50 entry (in series [1]; in series [2]; on Adenosine receptor A2a; in series [3]; against Cytochrome P450 2C19; in series [4]) was “Not Active” throughout. In addition, the IC50 entry in series [5] is “Not Active”. Also, the Ki result (at Cytochrome P450 2C19; in series [4]) was “Not Active” each time.
For `COc1ccnc(C[S+]([O-])c2nc3ccc(OC(F)F)cc3[nH]2)c1OC` (stereo unspecified) [PANTOPRAZOLE], the IC50 result (in series [1]; in series [2]; at Adenosine receptor A2a; in series [3]; against Cytochrome P450 2C19; in series [4]) was “Not Active” each time. In addition, the IC50 entry in series [5] is listed as “Not Active”. The Ki entry (on Cytochrome P450 2C19; in series [4]) was “Not Active” each time.
Regarding `N=C(N)c1ccc(OCCCCCOc2ccc(C(=N)N)cc2)cc1` [PENTAMIDINE], the IC50 entry (in series [1]; in series [2]; on Adenosine receptor A2a; in series [3]; on Cytochrome P450 2C19; in series [4]) was “Not Active” throughout. Also, the IC50 in series [5] (read-out: IC50) is 967 nM. The Ki (usually the equilibrium dissociation constant of an inhibitor or competing ligand from its target) on Cytochrome P450 2C19 is “Not Active”; in series [4], “Not Active”; in series [5] (read-out: Ki) it was 535 nM.
On to `CCc1ccc(CCOc2ccc(CC3SC(=O)NC3=O)cc2)nc1` (stereo unspecified) [PIOGLITAZONE], for which the IC50 result (in series [1]; in series [2]; at Adenosine receptor A2a; in series [3]; at Cytochrome P450 2C19; in series [4]) was “Not Active” each time. Moreover, the IC50 entry in series [5] was “Not Active”. For the same molecule, the Ki entry (on Cytochrome P450 2C19; in series [4]) was “Not Active” each time.
Consider `CCCNC(C)C(=O)Nc1ccccc1C` (stereo unspecified) [PRILOCAINE], for which the 50% inhibitory concentration (IC50) result (in series [1]; in series [2]; on Adenosine receptor A2a; in series [3]; at Cytochrome P450 2C19; in series [4]) was “Not Active” in each case. Further, the IC50 entry in series [5] is listed as “Not Active”. In addition, the Ki entry (at Cytochrome P450 2C19; in series [4]) was “Not Active” each time.
For the molecule `CCN(CC)CCCC(C)Nc1c2ccc(Cl)cc2nc2ccc(OC)cc12` (stereo unspecified) [QUINACRINE], the IC50 entry (in series [1]; in series [2]; at Adenosine receptor A2a; in series [3]; against Cytochrome P450 2C19; in series [4]) was “Not Active” throughout. The concentration for half-maximal inhibition (IC50) in series [5] (read-out: IC50) amounted to 3410 nM. The Ki entry was “Not Active” at Cytochrome P450 2C19, “Not Active” in series [4] and 1890 nM in series [5] (read-out: Ki).
For `CC[C@]1(O)C[C@@H]2CN(CCc3c([nH]c4ccccc34)[C@@](C(=O)OC)(c3cc4c(cc3OC)N(C)[C@H]3[C@@](O)(C(N)=O)[C@H](O)[C@]5(CC)C=CCN6CC[C@]43[C@@H]65)C2)C1` [VINDESINE], the IC50 result (in series [1]; in series [2]; on Adenosine receptor A2a; in series [3]; at Cytochrome P450 2C19; in series [4]) was “Not Active” each time. Moreover, the IC50 entry in series [5] is given as “Not Active”. In addition, the Ki result (on Cytochrome P450 2C19; in series [4]) was “Not Active” throughout.
Regarding `CCN(C(C)=O)c1cccc(-c2ccnc3c(C#N)cnn23)c1` [ZALEPLON], the IC50 entry (in series [1]; in series [2]; on Adenosine receptor A2a; in series [3]; against Cytochrome P450 2C19; in series [4]) was “Not Active” throughout. Also, in series [5], the IC50 entry is “Not Active”. In addition, the Ki entry (on Cytochrome P450 2C19; in series [4]) was “Not Active” throughout.
Turning to COBALTOUS CHLORIDE, the IC50 result (in series [1]; in series [2]; on Adenosine receptor A2a; in series [3]; at Cytochrome P450 2C19; in series [4]) was “Not Active” each time. For the same molecule, the half-maximal inhibitory concentration (IC50) result in series [5] is recorded as “Not Active”. Besides, the Ki result (in series [1]; in series [2]; at Adenosine receptor A2a; in series [3]; on Cytochrome P450 2C19; in series [4]) was “Not Active” each time. For the same molecule, the Ki result in series [5] was “Not Active”.
Consider COLISTIN, for which the IC50 result (in series [1]; in series [2]; at Adenosine receptor A2a; in series [3]; against Cytochrome P450 2C19; in series [4]) was “Not Active” throughout. Further, in series [5], the IC50 result is given as “Not Active”. Besides, the Ki entry (in series [1]; in series [2]; at Adenosine receptor A2a; in series [3]; on Cytochrome P450 2C19; in series [4]) was “Not Active” each time. Also, the inhibitory constant (Ki) result in series [5] is listed as “Not Active”.
